Experiment [1] has as its target 5-hydroxytryptamine receptor 2B (Homo sapiens, UniProt P41595).
Experiment [2] has as its target T1, Neuropeptide Y receptor type 2 (Homo sapiens, UniProt P49146).
T1 sequence (P49146 whole entry): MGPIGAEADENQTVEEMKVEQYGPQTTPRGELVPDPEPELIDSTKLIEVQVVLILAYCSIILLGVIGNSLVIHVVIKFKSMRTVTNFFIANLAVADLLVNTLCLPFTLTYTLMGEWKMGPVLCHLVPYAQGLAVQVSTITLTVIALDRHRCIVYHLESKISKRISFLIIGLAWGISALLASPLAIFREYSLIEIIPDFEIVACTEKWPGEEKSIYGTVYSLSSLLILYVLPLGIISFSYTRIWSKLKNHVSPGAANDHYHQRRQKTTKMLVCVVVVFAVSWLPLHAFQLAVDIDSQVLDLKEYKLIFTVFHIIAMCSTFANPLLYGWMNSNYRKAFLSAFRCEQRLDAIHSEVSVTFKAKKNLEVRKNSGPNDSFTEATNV

The target of another experiment is Glucagon receptor (Homo sapiens, UniProt P47871).
Chain of Glucagon receptor (P47871 whole entry): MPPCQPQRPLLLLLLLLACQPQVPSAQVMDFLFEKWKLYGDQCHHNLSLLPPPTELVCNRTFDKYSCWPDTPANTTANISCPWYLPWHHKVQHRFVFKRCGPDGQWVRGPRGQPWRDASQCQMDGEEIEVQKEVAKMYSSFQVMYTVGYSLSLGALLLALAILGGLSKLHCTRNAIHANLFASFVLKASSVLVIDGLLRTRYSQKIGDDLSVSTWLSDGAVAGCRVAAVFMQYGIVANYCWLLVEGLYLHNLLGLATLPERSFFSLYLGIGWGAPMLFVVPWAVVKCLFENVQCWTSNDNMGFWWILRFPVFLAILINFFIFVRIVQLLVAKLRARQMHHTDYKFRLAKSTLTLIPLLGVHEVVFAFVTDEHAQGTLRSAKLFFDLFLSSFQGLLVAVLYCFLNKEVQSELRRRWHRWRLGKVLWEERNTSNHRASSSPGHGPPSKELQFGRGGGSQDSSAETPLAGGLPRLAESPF
Experiment [3] has as its target T2, Endothelin receptor type B (Homo sapiens, UniProt P24530).
T2 sequence (P24530 whole entry): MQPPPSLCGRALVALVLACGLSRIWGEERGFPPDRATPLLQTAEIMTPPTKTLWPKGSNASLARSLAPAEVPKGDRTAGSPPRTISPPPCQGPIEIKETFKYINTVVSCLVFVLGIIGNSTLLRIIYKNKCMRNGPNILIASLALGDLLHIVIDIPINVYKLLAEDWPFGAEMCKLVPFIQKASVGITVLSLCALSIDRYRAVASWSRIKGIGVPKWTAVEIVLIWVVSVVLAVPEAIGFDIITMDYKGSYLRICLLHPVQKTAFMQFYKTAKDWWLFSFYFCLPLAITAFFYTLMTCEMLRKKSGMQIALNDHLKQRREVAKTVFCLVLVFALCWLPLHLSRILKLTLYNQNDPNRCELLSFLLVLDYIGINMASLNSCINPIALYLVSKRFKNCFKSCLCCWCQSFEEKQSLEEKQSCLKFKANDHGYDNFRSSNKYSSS

Experiment [4] deals with T3, 5-hydroxytryptamine receptor 1A (Homo sapiens, UniProt P08908).
T3 sequence (P08908 whole entry): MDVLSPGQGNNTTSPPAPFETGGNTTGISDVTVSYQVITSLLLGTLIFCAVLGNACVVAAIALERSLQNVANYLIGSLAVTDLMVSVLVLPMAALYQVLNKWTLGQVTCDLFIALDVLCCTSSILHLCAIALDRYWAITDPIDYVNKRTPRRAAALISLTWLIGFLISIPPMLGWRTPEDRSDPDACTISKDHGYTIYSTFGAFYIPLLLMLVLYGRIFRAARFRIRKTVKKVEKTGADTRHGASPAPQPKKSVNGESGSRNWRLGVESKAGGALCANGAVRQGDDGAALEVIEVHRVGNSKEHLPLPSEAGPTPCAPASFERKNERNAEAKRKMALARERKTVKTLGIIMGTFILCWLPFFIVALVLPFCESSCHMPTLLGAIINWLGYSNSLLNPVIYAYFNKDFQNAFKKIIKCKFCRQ

The target in experiment [5] is Voltage-dependent N-type calcium channel subunit alpha-1B (Rattus norvegicus, UniProt Q02294). In kind it is functional.
Chain of Voltage-dependent N-type calcium channel subunit alpha-1B (Q02294 whole entry): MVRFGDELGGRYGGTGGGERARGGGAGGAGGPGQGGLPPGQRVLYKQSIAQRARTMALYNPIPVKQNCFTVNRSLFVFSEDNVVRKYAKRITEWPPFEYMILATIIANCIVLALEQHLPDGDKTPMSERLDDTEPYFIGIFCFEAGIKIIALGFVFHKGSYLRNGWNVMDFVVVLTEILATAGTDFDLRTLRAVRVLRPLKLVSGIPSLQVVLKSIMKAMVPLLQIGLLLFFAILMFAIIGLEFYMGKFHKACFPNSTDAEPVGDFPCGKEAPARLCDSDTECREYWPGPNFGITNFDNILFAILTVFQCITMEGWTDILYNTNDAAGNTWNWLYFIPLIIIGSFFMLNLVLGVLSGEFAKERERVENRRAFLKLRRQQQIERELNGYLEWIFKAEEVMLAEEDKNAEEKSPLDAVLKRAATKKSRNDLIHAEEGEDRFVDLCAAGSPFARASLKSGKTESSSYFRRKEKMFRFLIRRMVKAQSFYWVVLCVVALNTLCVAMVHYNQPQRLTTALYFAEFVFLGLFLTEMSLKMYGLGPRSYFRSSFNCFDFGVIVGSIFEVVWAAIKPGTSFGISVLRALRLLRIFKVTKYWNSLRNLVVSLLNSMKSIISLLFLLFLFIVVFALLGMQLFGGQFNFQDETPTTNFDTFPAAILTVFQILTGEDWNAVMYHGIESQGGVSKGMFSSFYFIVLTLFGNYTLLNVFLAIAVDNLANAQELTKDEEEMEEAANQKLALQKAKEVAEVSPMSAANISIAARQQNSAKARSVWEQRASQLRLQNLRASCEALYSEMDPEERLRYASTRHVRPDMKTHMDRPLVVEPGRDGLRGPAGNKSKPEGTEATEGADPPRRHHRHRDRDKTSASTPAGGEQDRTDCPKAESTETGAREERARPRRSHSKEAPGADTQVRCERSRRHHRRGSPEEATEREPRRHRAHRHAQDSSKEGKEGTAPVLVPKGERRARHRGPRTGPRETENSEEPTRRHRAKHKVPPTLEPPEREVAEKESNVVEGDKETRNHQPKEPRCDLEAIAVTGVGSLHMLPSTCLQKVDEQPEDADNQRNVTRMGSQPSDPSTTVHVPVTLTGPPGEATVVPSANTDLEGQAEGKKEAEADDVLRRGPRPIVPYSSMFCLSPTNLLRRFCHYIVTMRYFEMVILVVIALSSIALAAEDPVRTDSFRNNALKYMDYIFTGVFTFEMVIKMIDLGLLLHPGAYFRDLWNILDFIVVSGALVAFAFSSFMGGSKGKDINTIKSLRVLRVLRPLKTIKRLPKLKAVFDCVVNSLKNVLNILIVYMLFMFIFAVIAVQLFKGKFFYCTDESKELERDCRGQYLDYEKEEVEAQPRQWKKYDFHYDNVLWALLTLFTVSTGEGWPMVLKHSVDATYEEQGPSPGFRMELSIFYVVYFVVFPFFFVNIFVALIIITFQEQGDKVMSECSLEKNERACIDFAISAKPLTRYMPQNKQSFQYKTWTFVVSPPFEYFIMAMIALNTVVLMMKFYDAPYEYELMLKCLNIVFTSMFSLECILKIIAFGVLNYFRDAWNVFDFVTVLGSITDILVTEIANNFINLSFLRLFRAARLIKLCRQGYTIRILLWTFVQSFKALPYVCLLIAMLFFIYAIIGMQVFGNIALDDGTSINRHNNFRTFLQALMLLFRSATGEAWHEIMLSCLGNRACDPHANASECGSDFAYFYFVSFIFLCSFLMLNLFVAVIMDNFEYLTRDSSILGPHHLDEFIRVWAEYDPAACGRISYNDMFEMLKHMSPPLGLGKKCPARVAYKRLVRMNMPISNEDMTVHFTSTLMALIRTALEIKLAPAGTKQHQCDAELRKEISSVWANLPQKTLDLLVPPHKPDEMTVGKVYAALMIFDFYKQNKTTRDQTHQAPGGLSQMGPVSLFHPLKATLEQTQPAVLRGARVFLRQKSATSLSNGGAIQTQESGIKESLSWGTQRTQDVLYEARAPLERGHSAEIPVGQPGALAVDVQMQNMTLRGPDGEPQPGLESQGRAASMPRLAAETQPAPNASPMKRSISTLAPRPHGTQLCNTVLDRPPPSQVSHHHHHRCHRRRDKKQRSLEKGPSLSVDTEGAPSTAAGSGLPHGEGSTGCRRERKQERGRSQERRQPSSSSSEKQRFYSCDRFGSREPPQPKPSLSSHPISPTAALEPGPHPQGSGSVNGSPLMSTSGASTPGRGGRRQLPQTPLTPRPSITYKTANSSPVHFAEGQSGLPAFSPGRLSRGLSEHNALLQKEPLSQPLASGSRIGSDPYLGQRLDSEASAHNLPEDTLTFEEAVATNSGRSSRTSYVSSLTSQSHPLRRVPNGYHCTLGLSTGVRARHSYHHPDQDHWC
The target in experiment [6] is Beta-3 adrenergic receptor (Homo sapiens, UniProt P13945).
Chain of Beta-3 adrenergic receptor (P13945 whole entry): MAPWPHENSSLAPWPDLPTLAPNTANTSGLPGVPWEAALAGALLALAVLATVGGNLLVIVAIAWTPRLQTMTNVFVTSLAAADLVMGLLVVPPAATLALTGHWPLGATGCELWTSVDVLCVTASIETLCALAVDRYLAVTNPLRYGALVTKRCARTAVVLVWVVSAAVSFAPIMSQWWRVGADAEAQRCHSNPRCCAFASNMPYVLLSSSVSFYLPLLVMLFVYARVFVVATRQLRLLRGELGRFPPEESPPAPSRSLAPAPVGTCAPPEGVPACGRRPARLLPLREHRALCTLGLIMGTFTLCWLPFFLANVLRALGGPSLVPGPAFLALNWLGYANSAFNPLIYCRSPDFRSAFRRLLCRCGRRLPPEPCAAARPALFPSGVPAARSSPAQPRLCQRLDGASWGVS
The target in experiment [7] is T4, Alpha-2A adrenergic receptor (Homo sapiens, UniProt P08913).
T4 sequence (P08913 whole entry): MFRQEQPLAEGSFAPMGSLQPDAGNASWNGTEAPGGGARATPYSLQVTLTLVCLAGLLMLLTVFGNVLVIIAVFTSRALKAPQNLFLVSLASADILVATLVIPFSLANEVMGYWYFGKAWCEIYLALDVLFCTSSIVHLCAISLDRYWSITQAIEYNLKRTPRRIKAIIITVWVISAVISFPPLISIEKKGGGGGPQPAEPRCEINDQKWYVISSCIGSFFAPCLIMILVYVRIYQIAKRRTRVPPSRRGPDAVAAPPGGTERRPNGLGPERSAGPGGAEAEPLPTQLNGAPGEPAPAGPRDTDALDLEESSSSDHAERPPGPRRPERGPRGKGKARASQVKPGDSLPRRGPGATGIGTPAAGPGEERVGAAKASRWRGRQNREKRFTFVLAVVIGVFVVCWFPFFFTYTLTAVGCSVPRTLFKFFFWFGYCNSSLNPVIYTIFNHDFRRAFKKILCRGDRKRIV

Experiment [8] deals with T5, Corticotropin-releasing factor receptor 1 (Homo sapiens, UniProt P34998).
T5 sequence (P34998 whole entry): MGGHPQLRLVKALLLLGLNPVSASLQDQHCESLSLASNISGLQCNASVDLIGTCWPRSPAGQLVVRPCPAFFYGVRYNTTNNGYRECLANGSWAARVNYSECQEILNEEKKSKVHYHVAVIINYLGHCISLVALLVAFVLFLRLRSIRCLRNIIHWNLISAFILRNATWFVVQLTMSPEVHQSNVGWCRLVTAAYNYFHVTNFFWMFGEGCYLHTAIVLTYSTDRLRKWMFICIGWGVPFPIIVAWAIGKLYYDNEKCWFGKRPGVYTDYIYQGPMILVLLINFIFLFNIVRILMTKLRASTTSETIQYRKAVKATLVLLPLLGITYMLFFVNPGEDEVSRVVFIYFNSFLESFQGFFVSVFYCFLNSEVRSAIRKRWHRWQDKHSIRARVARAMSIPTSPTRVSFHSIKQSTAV

In experiment [9] the target is T6, Alpha-1A adrenergic receptor (Homo sapiens, UniProt P35348).
T6 sequence (P35348 whole entry): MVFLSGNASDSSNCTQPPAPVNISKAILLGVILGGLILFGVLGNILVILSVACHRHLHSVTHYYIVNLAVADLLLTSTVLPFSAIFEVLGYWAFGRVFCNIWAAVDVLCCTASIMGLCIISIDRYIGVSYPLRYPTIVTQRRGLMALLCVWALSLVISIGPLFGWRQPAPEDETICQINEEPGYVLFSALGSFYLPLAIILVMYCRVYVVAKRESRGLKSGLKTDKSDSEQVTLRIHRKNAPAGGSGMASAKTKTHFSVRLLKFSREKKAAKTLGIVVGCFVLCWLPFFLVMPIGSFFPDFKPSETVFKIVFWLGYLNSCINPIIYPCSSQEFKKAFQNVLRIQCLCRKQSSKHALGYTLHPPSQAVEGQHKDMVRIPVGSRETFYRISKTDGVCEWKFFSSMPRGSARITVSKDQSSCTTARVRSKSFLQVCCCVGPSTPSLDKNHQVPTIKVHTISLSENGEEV

Experiment [10] has as its target Beta-2 adrenergic receptor (Homo sapiens, UniProt P07550). It counts as functional, cell-based.

As usually defined, the AC50 is the concentration at which the activity in the assay is half-maximal.
Also: assay procedure not described here.

Chain of Beta-2 adrenergic receptor (P07550 whole entry): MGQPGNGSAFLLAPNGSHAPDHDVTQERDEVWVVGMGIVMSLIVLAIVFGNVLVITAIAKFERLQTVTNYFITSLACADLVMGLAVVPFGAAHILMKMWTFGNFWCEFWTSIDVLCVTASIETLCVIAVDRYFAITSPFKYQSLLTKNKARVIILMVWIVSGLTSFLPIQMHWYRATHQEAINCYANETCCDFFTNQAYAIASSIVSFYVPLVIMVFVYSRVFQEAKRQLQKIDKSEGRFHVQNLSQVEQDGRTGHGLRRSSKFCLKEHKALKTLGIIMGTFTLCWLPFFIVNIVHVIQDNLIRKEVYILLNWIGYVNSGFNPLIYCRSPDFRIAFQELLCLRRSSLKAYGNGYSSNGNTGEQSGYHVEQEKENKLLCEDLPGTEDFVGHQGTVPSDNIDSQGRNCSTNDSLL
Chain of 5-hydroxytryptamine receptor 2B (P41595 whole entry): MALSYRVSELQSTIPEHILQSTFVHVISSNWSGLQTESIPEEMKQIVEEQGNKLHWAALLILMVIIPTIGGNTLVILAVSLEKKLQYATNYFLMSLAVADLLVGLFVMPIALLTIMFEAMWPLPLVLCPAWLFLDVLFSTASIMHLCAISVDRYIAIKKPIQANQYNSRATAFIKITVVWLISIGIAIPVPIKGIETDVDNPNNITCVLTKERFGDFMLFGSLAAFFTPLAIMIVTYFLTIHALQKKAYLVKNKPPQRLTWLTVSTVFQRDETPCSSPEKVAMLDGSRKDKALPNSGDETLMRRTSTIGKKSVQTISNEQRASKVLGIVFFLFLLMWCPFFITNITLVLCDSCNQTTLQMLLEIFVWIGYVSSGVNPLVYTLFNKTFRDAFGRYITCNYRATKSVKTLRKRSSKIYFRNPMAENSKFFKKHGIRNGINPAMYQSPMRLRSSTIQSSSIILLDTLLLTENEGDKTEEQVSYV

Turning to `C[C@]1(COc2ccc(N3CCC(Oc4ccc(OC(F)(F)F)cc4)CC3)cc2)Cn2cc([N+](=O)[O-])nc2O1`, the AC50 in [1] was greater than 10 µM; in experiment [2], greater than 30 µM; on Glucagon receptor, greater than 30 µM; in experiment [3] it was greater than 30 µM; in experiment [4], greater than 10 µM; in experiment [5], greater than 10 µM. Also, the AC50 in [6] is greater than 30 µM; in experiment [7] it was greater than 10 µM; in experiment [8], greater than 30 µM.
Consider `C[C@]12CC[C@H](O)CC1=CC[C@@H]1[C@@H]2CC[C@]2(C)C(c3cccnc3)=CC[C@@H]12` [ABIRATERONE], for which the AC50 in experiment [9] was greater than 10 µM.
`CC(=O)OCC[N+](C)(C)C` [ACETYLCHOLINE]: the AC50 in experiment [1] is greater than 10 µM; in experiment [2], greater than 30 µM; on Glucagon receptor, greater than 30 µM; in experiment [3], greater than 30 µM; in experiment [4], greater than 10 µM; in [5], greater than 10 µM. For the same molecule, the AC50 in experiment [6] is greater than 30 µM; in experiment [7], greater than 10 µM; in [8] it was greater than 30 µM; in experiment [9], greater than 10 µM.
Turning to `O=C(Nc1nc(-c2cc(Cl)cs2)c(N2CCN(C3CCCCC3)CC2)s1)c1cnc(N2CCC(C(=O)O)CC2)c(Cl)c1` [AVATROMBOPAG], the AC50 in experiment [1], in experiment [2], in [3], in experiment [4], in [5] and in [7] was greater than 10 µM each time.
Regarding `C[C@H]1C[C@H]2[C@@H]3CCC4=CC(=O)C=C[C@]4(C)[C@@]3(Cl)[C@@H](O)C[C@]2(C)[C@@]1(O)C(=O)CO` [BECLOMETHASONE], the AC50 in experiment [1] was greater than 10 µM; in experiment [2] it was greater than 30 µM; on Glucagon receptor, greater than 30 µM; in [3], greater than 30 µM; in experiment [4], greater than 10 µM; in [5], greater than 10 µM. For the same molecule, the AC50 in experiment [6] is greater than 30 µM; in experiment [7], greater than 10 µM; in experiment [8], greater than 30 µM.
`CO[C@@]1(NC(=O)CSCC#N)C(=O)N2C(C(=O)O)=C(CSc3nnnn3C)CS[C@@H]21` [CEFMETAZOLE] yielded an AC50 in [10] greater than 30 µM.
On the same count and under the same terms, for `CO/N=C(\C(=O)N[C@@H]1C(=O)N2C(C(=O)[O-])=C(C[n+]3cccc4c3CCC4)CS[C@H]12)c1csc(N)n1` [CEFPIROME] the value was greater than 30 µM.
Turning to `NS(=O)(=O)c1cc(C2(O)NC(=O)c3ccccc32)ccc1Cl` (stereo unspecified) [CHLORTHALIDONE], the AC50 in experiment [9] is greater than 10 µM.
In turn, `CC[C@H]1OC(=O)[C@H](C)[C@@H](O[C@H]2C[C@@](C)(OC)[C@@H](O)[C@H](C)O2)[C@H](C)[C@@H](O[C@@H]2O[C@H](C)C[C@H](N(C)C)[C@H]2O)[C@](C)(OC)C[C@@H](C)C(=O)[C@H](C)[C@@H](O)[C@]1(C)O` [CLARITHROMYCIN] displayed an AC50 in [10] greater than 30 µM.
Still for that read-out and setting: for `Oc1c(I)cc(Cl)c2cccnc12` [CLIOQUINOL] the value was greater than 10 µM.
As for `COc1ccc2c(c1)[C@]13CCCC[C@@H]1[C@H](C2)N(C)CC3` [DEXTROMETHORPHAN], the AC50 was 5.8 µM in experiment [1]; greater than 30 µM in experiment [2]; greater than 30 µM at Glucagon receptor; greater than 30 µM in experiment [3]; greater than 10 µM in experiment [4]; greater than 10 µM in experiment [5]. The AC50 in experiment [6] was greater than 30 µM; in experiment [7], 11.2 µM; in experiment [8], greater than 30 µM; in experiment [9], 3.58 µM.
The molecule `O=c1oc2ccccc2c(O)c1Cc1c(O)c2ccccc2oc1=O` [DICUMAROL] showed a half-maximal activity concentration (AC50) in [9] greater than 10 µM.
Turning to `CCn1cc(C(=O)O)c(=O)c2cc(F)c(N3CCNCC3)nc21` [ENOXACIN], the AC50 is greater than 10 µM in [1]; greater than 30 µM in experiment [2]; greater than 30 µM on Glucagon receptor; greater than 30 µM in experiment [3]; greater than 10 µM in experiment [4]; greater than 10 µM in experiment [5]. For the same molecule, the half-maximal activity concentration (AC50) in experiment [6] is greater than 30 µM; in [7] it was greater than 10 µM; in experiment [8], greater than 30 µM; in [9], greater than 10 µM.
The molecule `C#C[C@]1(O)CC[C@H]2[C@@H]3CCc4cc(OC)ccc4[C@H]3CC[C@@]21C` [MESTRANOL] yielded a concentration at half-maximal activity (AC50) in experiment [9] greater than 30 µM.
`CNC(=O)Oc1ccc2c(c1)[C@]1(C)CCN(C)[C@@H]1N2C` [PHYSOSTIGMINE] came in with a half-maximal activity concentration (AC50) in experiment [10] greater than 30 µM.
The molecule `CNCCCC1c2ccccc2C=Cc2ccccc21` [PROTRIPTYLINE] had an AC50 in experiment [9] of 0.461 µM.
Consider `COCCCOc1ccnc(C[S+]([O-])c2nc3ccccc3[nH]2)c1C` (stereo unspecified) [RABEPRAZOLE], for which the concentration at half-maximal activity (AC50) in [1] was greater than 10 µM; in [2] it was greater than 30 µM; at Glucagon receptor it was greater than 30 µM; in experiment [3], greater than 30 µM; in [4], greater than 10 µM; in experiment [5] it was greater than 10 µM. Moreover, the AC50 was greater than 30 µM in experiment [6], greater than 10 µM in experiment [7], greater than 30 µM in experiment [8] and greater than 10 µM in experiment [9].
Turning to `O=C(CCCN1CCC2(CC1)C(=O)NCN2c1ccccc1)c1ccc(F)cc1` [SPIPERONE], the AC50 in experiment [1] was 0.66 µM; in [9], 0.31 µM; in experiment [10] it was greater than 30 µM.
For the molecule `CN(C)c1cc(NC(=O)CNC(C)(C)C)c(O)c2c1C[C@H]1C[C@H]3[C@H](N(C)C)C(O)=C(C(N)=O)C(=O)[C@@]3(O)C(O)=C1C2=O` [TIGECYCLINE], the AC50 in experiment [9] was greater than 30 µM.
Consider `OCCN1CCN(CC/C=C2/c3ccccc3Sc3ccc(Cl)cc32)CC1` [ZUCLOPENTHIXOL], for which the results for the AC50 in [1], in [7] and in [9] were 0.0144 µM, 7.34 µM and 0.0114 µM, respectively.

These data come from ChEMBL document CHEMBL5291721, “A preclinical secondary pharmacology resource illuminates target-adverse drug reaction associations of marketed drugs” (Nat Commun, 2023).
